Patent publication US12702694B2, “Methods for identification, assessment, prevention, and treatment of metabolic disorders using SLIT2” (Dana-Farber Cancer Institute, Inc., priority 2015, dated 2026)

How the values were obtained:
Slit2 = Slit2 mRNA in adipose tissue after daily CL 316,243 injections; type: in vivo, Mus musculus; settings: 3 days treatment, daily injections 1 mg/kg; did not reach statistical significance; FIG. 2F
Experimental: (§1) RNA was extracted from cultured cells or frozen tissue samples using TRIzol®, purified with QIAGEN RNeasy® minicolumns. Normalized RNA was reversed transcribed using a high-capacity cDNA reverse transcription lot (Applied Biosystems) and cDNA was analyzed by qRT-CPR. Relative mRNA levels were calculated using the comparative CT method and normalized to cyclophilin miRNA. All primers used are listed with their sequences in Table 3 as follows: […]

primary inguinal cells = test: Thermogenic gene expression in Slit2-C transduced primary inguinal cells co-treated with inhibitors; type: cell-based, Mus musculus
Experimental: Inguinal and brown stromal-vascular fractions were obtained from 6 weeks old male or newborn mice (postnatal days 5-10) for white and brown fat cultures, respectively. Inguinal fat tissue was dissected and washed with PBS, minced and digested for 45 min at 37° C. in PBS containing 10 mM CaCl2), 2.4 U/ml dispase II (Roche) and 10 mg/ml collagenase D (Roche). Brown fat tissue was dissected, washed with PBS, minced and digested for 45 min at 37° C. in PBS containing 1.3 mM CaCl2, 123 mM NaCl, 5 mM KCl, 5.0 mM glucose, 100 mM HEPES, 4% BSA and 1.5 mg/ml collagenase B (Roche). Digested tissue was filtered through a 100-μm cell strainer and centrifuged at 600 g for 10 min. Pelleted inguinal stromal-vascular cells were grown to confluence and induced to differentiate by an adipogenic cocktail containing 0.02 μM insulin, 1 μM rosiglitazone, 5 μM dexamethasone, 0.5 μM isobuthylmethylxanthine. For differentiation of brown fat cells, 1 nM T3 and 125 μM indomethacin were also added to the adipogenic cocktail. Two days after induction, cells were maintained in adipocyte culture medium containing 0.02 μM insulin and 1 μM rosiglitazone. Where indicated, cells were treated with forskolin (10 μM), norepinephrine (100 nM) for 4 h or with recombinant proteins (1 μg/ml, R&D systems) for 24 h or for the indicated times. For adenoviral overexpression of Slit2-FL, Slit2-N, Slit2-C, LacZ or Cre, virus was added at day 2 of differentiation at a titer of 10^8 particles/well and cells were analyzed at day 6-7. […]
as §1, with “[…].” for “miRNA. All primers used are listed with their sequences in Table 3 as follows:”

PKA signaling pathway [1] = test: Western blotting of PKA and related signaling in primary inguinal cells; type: cell-based, Mus musculus; settings: H89 30 μM, 2 h, primary inguinal cells; FIG. 10C
Experimental: Inguinal and brown stromal-vascular fractions were obtained from 6 weeks old male or newborn mice (postnatal days 5-10) for white and brown fat cultures, respectively. Inguinal fat tissue was dissected and washed with PBS, minced and digested for 45 min at 37° C. in PBS containing 10 mM CaCl2), 2.4 U/ml dispase II (Roche) and 10 mg/ml collagenase D (Roche). Brown fat tissue was dissected, washed with PBS, minced and digested for 45 min at 37° C. in PBS containing 1.3 mM CaCl2, 123 mM NaCl, 5 mM KCl, 5.0 mM glucose, 100 mM HEPES, 4% BSA and 1.5 mg/ml collagenase B (Roche). Digested tissue was filtered through a 100-μm cell strainer and centrifuged at 600 g for 10 min. Pelleted inguinal stromal-vascular cells were grown to confluence and induced to differentiate by an adipogenic cocktail containing 0.02 μM insulin, 1 μM rosiglitazone, 5 μM dexamethasone, 0.5 μM isobuthylmethylxanthine. For differentiation of brown fat cells, 1 nM T3 and 125 μM indomethacin were also added to the adipogenic cocktail. Two days after induction, cells were maintained in adipocyte culture medium containing 0.02 μM insulin and 1 μM rosiglitazone. Where indicated, cells were treated with forskolin (10 μM), norepinephrine (100 nM) for 4 h or with recombinant proteins (1 μg/ml, R&D systems) for 24 h or for the indicated times. For adenoviral overexpression of Slit2-FL, Slit2-N, Slit2-C, LacZ or Cre, virus was added at day 2 of differentiation at a titer of 10^8 particles/well and cells were analyzed at day 6-7. Where indicated, cells were treated with the drugs Erlotinib (SelleckChem), Lapatinib (Santa Cruz), PD0325901 (Santa Cruz), Propranolol (SelleckChem), H89 dihydrochloride (Santa Cruz), SQ-22536 (Santa Cruz) for indicated time points and concentrations.
For Western blotting, homogenized tissues, whole cell lysates, or concentrated serum free conditioned medium were lysed in RIPA buffer containing protease inhibitor cocktail (Thermo Scientific) and phosphatase inhibitor cocktail (Thermo Scientific), separated by SDS-PAGE and transferred to Immobilon-P® membranes (Millipore). For Western blotting of plasma samples, 1 μl of plasma was prepared containing 2× sample buffer (Invitrogen) with reducing agent, boiled and analyzed using Western blot against V5, FLAG, or the indicated antibody. V5-antibody was from Life Technologies and anti-Flag M2-HRP (A8592) from Sigma Aldrich. Anti-Slit2 antibody used was from Abcam (Abcam ab134166). Phospho-PKA Substrate, phospho-PKC Substrate, phospho-ERK1/2, total ERK, phospho-AKT, total AKT, phospho-AMPK, total AMPK, phospho-ATGL, ATGL, phospho-EGFR and EGFR were from Cell Signaling. Protein array was from R&D Systems (Proteome Profiler Mouse Phospho-RTK Array Kit, ARY014). Silverstain (SilverQuest™ Silver Staining Kit, LC6070) was purchased from Thermo Fisher.

brown fat = settings: humans; Cypess et al. (2015); cited from earlier work
PKA signaling pathway [2] = test: Western blotting of PKA and related signaling in primary inguinal cells; type: cell-based, Mus musculus; settings: 20 nM NE; FIG. 10M
[3] = tested on: cell surface of primary inguinal adipocytes; test: Cell surface binding by confocal laser scanning microscopy; set-up: species or system Mus musculus; settings: purified FLAG-tagged protein, live adipocytes incubated at 4° C.; FIGS. 10L, 11E
Experimental: Live, primary differentiated adipocytes were incubated with recombinant Slit2-C FLAG-tagged protein for 1 h at 4° C. before fixation and staining with a fluorescent antibody for visualization of cell-surface bound proteins using a confocal laser scanning microscope.
Experiments were performed using a Nikon Ti w/A1R confocal inverted microscope equipped with a Nikon Plan Apo 60x/NA 1.4 oil immersion objective lens using excitation wavelengths of 405 and 561 nm. All experiments were performed under confocal imaging conditions (pinhole <1 airy unit) and images taken with the same laser settings. Image analysis was performed using the Nikon Elements acquisition software. Primary inguinal cells differentiated until day 5 was gently trypsinized and seeded onto poly-D-lysine-coated coverslips (Corning Biocoat 12 mm German Glass coverslips, #08-774-385) in a 6-well plate at a density of 10,000 cells per well in growth medium. On the next day, cell surface binding was performed by adding 1 μg/ml purified protein to cells or FLAG peptide in PBS in serum-containing medium for 1 h at 4° C. on ice. Cells were washed three times in PBS, fixed in 4% paraformaldehyde for 10 min at 4° C., and washed with PBS three times before blocking with 5% BSA in PBS for 1 h at room temperature. Cells treated with protein or FLAG peptide alone were stained using 1:200 anti-Flag M2-HRP overnight at 4° C. […]

C[C@H](Cc1ccc2c(c1)OC(C(=O)[O-])(C(=O)[O-])O2)NC[C@H](O)c1cccc(Cl)c1.[Na+].[Na+] [CL316, 243]
Slit2 gene expression in iWAT (Slit2): trend to an increase

Cl.Cl.O=S(=O)(NCCNC/C=C/c1ccc(Br)cc1)c1cccc2cnccc12 [H89, H89 dihydrochloride]
Dio2 mRNA in cells receiving Slit2-C (primary inguinal cells; H89 30 μM, FIG. 10D): down to baseline levels | reduction of Ucp1 mRNA in cells receiving Slit2-C (primary inguinal cells; H89 30 μM, FIG. 10D): 50% | phosphorylation of PKA substrates (PKA signaling pathway [1]): significantly reduced

Nc1nc(CC(=O)Nc2ccc(CCNC[C@H](O)c3ccccc3)cc2)cs1 [mirabegron]
brown fat activation (brown fat): apparent activation of brown fat | resting metabolic rate (brown fat): increased resting metabolic rate

NC[C@H](O)c1ccc(O)c(O)c1 [NE, norepinephrine]
time of treatment to full PKA phosphorylation response (PKA signaling pathway [2]): ≤ 5 min

CC(C)NCC(O)COc1cccc2ccccc12 (stereo not drawn) [Propranolol]
inhibition of Slit2-C induced thermogenesis (primary inguinal cells; propranolol 100 nM for 24 h, FIG. 10H): did not inhibit

B1: Pm20D1: another FLAG-tagged protein secreted from thermogenic adipocytes, control for specific staining (protein)
chain: STGPRSRENRGASRIPSQFSEEERVAIKEALKGAIQIPTVSFSHEESNTTALAEFGEYIRKAFPTVFHSSLVQHEVVAKYSHLFTIQGSDPSLQPYMLMAHIDVVPAPEEGWEVPPFSGLERNGFIYGRGALDNKNSVMAILHALELLLIRNYSPKRSFFIALGHDEEVSGEKGAQKISALLQARGVQLAFLVDEGSFILEGFIPNLEKPVAMISVTEKGALDLMLQVNMTPGHSSAPPKETSIGILSAAVSRLEQTPMPNMFGGGPLKKTMKLLANEFSFPINIVLRNLWLFHPIVSRIMERNPITNALVRTTTALTMFNAGIKVNVIPPLAQATINCRIHPSQTVHEVLELVKNTVADDRVQLHVLRSFEPLPISPSDDQAMGYQLLQETIRSVFPEVDIVVPGICIANTDTRHYANITNGMYRFNPLPLNPQDFSGVHGINEKVSVQNYQNQVKFIFEFIQNADTYKEPVPHLHEL
modifications: left off: small tags and cut ends
notes: another FLAG-tagged protein secreted from thermogenic adipocytes, control for specific staining
binding to the cell surface of adipocytes [3]: very limited binding
